{"source": "patent US6025333A", "about": "“Treatment of CNS tumors with metalloprotease inhibitors” (Erziehungsdirektion of the Canton Zurich, priority 1995, dated 2000)", "molecules": {"B1": {"name": "2-macroglobulin: general protease inhibitor (protein, UniProt P01023 24-1474, looked up)", "Alpha-2-macroglobulin": "SVSGKPQYMVLVPSLLHTETTEKGCVLLSYLNETVTVSASLESVRGNRSLFTDLEAENDVLHCVAFAVPKSSSNEEVMFLTVQVKGPTQEFKKRTTVMVKNEDSLVFVQTDKSIYKPGQTVKFRVVSMDENFHPLNELIPLVYIQDPKGNRIAQWQSFQLEGGLKQFSFPLSSEPFQGSYKVVVQKKSGGRTEHPFTVEEFVLPKFEVQVTVPKIITILEEEMNVSVCGLYTYGKPVPGHVTVSICRKYSDASDCHGEDSQAFCEKFSGQLNSHGCFYQQVKTKVFQLKRKEYEMKLHTEAQIQEEGTVVELTGRQSSEITRTITKLSFVKVDSHFRQGIPFFGQVRLVDGKGVPIPNKVIFIRGNEANYYSNATTDEHGLVQFSINTTNVMGTSLTVRVNYKDRSPCYGYQWVSEEHEEAHHTAYLVFSPSKSFVHLEPMSHELPCGHTQTVQAHYILNGGTLLGLKKLSFYYLIMAKGGIVRTGTHGLLVKQEDMKGHFSISIPVKSDIAPVARLLIYAVLPTGDVIGDSAKYDVENCLANKVDLSFSPSQSLPASHAHLRVTAAPQSVCALRAVDQSVLLMKPDAELSASSVYNLLPEKDLTGFPGPLNDQDNEDCINRHNVYINGITYTPVSSTNEKDMYSFLEDMGLKAFTNSKIRKPKMCPQLQQYEMHGPEGLRVGFYESDVMGRGHARLVHVEEPHTETVRKYFPETWIWDLVVVNSAGVAEVGVTVPDTITEWKAGAFCLSEDAGLGISSTASLRAFQPFFVELTMPYSVIRGEAFTLKATVLNYLPKCIRVSVQLEASPAFLAVPVEKEQAPHCICANGRQTVSWAVTPKSLGNVNFTVSAEALESQELCGTEVPSVPEHGRKDTVIKPLLVEPEGLEKETTFNSLLCPSGGEVSEELSLKLPPNVVEESARASVSVLGDILGSAMQNTQNLLQMPYGCGEQNMVLFAPNIYVLDYLNETQQLTPEIKSKAIGYLNTGYQRQLNYKHYDGSYSTFGERYGRNQGNTWLTAFVLKTFAQARAYIFIDEAHITQALIWLSQRQKDNGCFRSSGSLLNNAIKGGVEDEVTLSAYITIALLEIPLTVTHPVVRNALFCLESAWKTAQEGDHGSHVYTKALLAYAFALAGNQDKRKEVLKSLNEEAVKKDNSVHWERPQKPKAPVGHFYEPQAPSAEVEMTSYVLLAYLTAQPAPTSEDLTSATNIVKWITKQQNAQGGFSSTQDTVVALHALSKYGAATFTRTGKAAQVTIQSSGTFSSKFQVDNNNRLLLQQVSLPELPGEYSMKVTGEGCVYLQTSLKYNILPEKEEFPFALGVQTLPQTCDEPKAHTSFQISLSVSYTGSRSASNMAIVDVKMVSGFIPLKPTVKMLERSNHVSRTEVSSNHVLIYLDKVSNQTLSLFFTVLQDVPVRDLKPAIVKVYDYYETDEFAIAEYNAPCSKDLGNA"}}, "test_system": "C6 cells", "assay": "C6 cell spreading on PLYS or CNS myelin with protease inhibitors", "type": "cell-based, rat", "conditions": "for effect on C6 cell spreading on CNS myelin: Table X", "procedure": "Rat C6, mouse NIH 3T3 and B16 cells were cultured in Dulbecco's modified Eagle's medium (DMEM) supplemented with 10% fetal calf serum (FCS), usually to maximally 70-80% confluency. Cells were harvested with a short trypsin treatment (0.1% in Ca^2+ /Mg^2+ -free Hank's medium for 90 seconds) stopped by addition of FCS in excess, collected by centrifugation. Cells were resuspended in either DMEM/FCS or defined serum-free medium (MEM) and used for experiments. Dissociated rat CNS glial cells were prepared starting from optic nerves of 6-7 days old Lewis rats as described in Section 6.1.1, supra and plated into poly-D-lysine (PLYS) coated wells (100 mm^2, 100 μl medium) at a density of 20,000 cells per well. The culture medium was an enriched L15 medium with 5% rat serum, penicillin and streptomycin. C6, 3T3 and B16 cells were added to 2 day old cultures at a concentration of 30,000 cells per well, incubated for two hours and fixed with warm 4% formalin in phosphate buffer. Inhibitory oligodendrocytes were identified by double labelling using the specific antibodies O1 and O4 (see Section 6.1.3, supra).\nMyelin from rat spinal cord (CNS) or sciatic nerve (PNS) purified on a discontinuous sucrose gradient as described in Section 6.1.5., was dried overnight onto PLYS coated wells (20 μg protein/well of 100 mm^2 surface). Unbound membranes were removed by three washes with Ca^2+ /Mg^2+ -free Hank's solution. Myelin coated wells were immediately used in substrate testing assays by the addition of 9,000 cells (C6, 3T3, or B16) per cm^2. Alternatively, we used extracted CNS myelin protein, or SDS-PAGE purified 35 and 250 kD inhibitory proteins reconstituted in liposomes (see Section 7.1.5, supra). Experiments were scored at different time points using a phase contrast microscope equipped with a photocamera. Quantifications were done using a surface integration program; three arbitrary fields were photographed for each well at a magnitude of 80×, at least 25 cells per picture were measured. Each point represents the mean of at least 3 wells±SEM. Results are expressed as μ^2 of projected cell surface, or as degree, which was calculated by subtracting from the projected surface value of a spreading cell, the surface value of a completely spheric cell.", "note": "Peptide text beside a SMILES is read from it. * marks the point of attachment. Cbz = O=C(OCc1ccccc1)*"}
{"molecule": "CC(C)C[C@H](NC(=O)[C@H](Cc1ccccc1)NCC(=O)O)C(=O)O", "note": "[cm-phe-leu, Carboxymethyl-phe-leu]", "values": [{"measurement": "effect on C6 cell spreading on CNS myelin", "value": "did not inhibit C6 cell spreading"}, {"measurement": "Spreading on: PLYS (% of control on PLYS)", "setting": "inhibitor 0.5 mM, 150 minutes", "value": "95 % of control on PLYS"}, {"measurement": "Spreading on: CNS (% of control on PLYS)", "setting": "inhibitor 0.5 mM, CNS myelin, 150 minutes", "value": "92 % of control on PLYS"}, {"measurement": "Inhibition on CNS (%)", "setting": "inhibitor 0.5 mM, PLYS value minus CNS myelin value", "value": 3, "unit": "%"}]}
{"molecule": "O=S(=O)(F)Cc1ccccc1", "note": "[PMSF, Phenyl methyl sulfonyl fluoride]", "values": [{"measurement": "Spreading on: PLYS (% of control on PLYS)", "setting": "inhibitor 4.0 mM, 150 minutes", "value": "100 % of control on PLYS"}, {"measurement": "Spreading on: CNS (% of control on PLYS)", "setting": "inhibitor 4.0 mM, CNS myelin, 150 minutes", "value": "94 % of control on PLYS"}, {"measurement": "Inhibition on CNS (%)", "setting": "inhibitor 4.0 mM, PLYS value minus CNS myelin value", "value": 6, "unit": "%"}]}
{"molecule": "CC(C)C[C@H](NC(=O)[C@@H](O)[C@H](N)Cc1ccccc1)C(=O)O", "note": "[bestatine]", "values": [{"measurement": "effect on C6 cell spreading on CNS myelin", "value": "did not impair C6 cell spreading"}, {"measurement": "Inhibition on CNS (%)", "setting": "inhibitor 0.1 mM", "value": 0, "unit": "%"}, {"measurement": "Spreading on: CNS (% of control on PLYS)", "setting": "inhibitor 0.1 mM, CNS myelin, 150 minutes", "value": "104 % of control on PLYS"}]}
{"molecule": "NC(=O)CNC(=O)CNC(=O)OCc1ccccc1", "note": "[cbz-gly-gly-NH2] (Cbz-Gly-Gly-NH2)", "values": [{"measurement": "Spreading on: CNS (% of control on PLYS)", "setting": "inhibitor 1.0 mM, CNS myelin, 150 minutes", "value": "99 % of control on PLYS"}, {"measurement": "Inhibition on CNS (%)", "setting": "inhibitor 1.0 mM, PLYS value minus CNS myelin value", "value": 1, "unit": "%"}]}
{"molecule": "CC(C)C[C@H](NP(=O)(O)O[C@@H]1O[C@@H](C)[C@H](O)[C@@H](O)[C@H]1O)C(=O)N[C@@H](Cc1c[nH]c2ccccc12)C(=O)O", "note": "[phosphoramidon]", "values": [{"measurement": "activity at 300 µM", "setting": "Rattus norvegicus, C6, 2.5 h, inhibitor 0.3 mM, CNS myelin, 150 minutes, read-out: Spreading on: CNS (% of control on PLYS)", "value": 91, "unit": "%"}, {"measurement": "inhibition at 300 µM", "setting": "Rattus norvegicus, C6, inhibitor 0.3 mM, PLYS value minus CNS myelin value", "value": 9, "unit": "%"}, {"measurement": "effect on C6 cell spreading on CNS myelin", "value": "did not impair C6 cell spreading"}]}
{"molecule": "B1", "values": [{"measurement": "Spreading on: PLYS (% of control on PLYS)", "setting": "inhibitor 3.0 μM, 150 minutes", "value": "70 % of control on PLYS"}, {"measurement": "Spreading on: CNS (% of control on PLYS)", "setting": "inhibitor 3.0 μM, CNS myelin, 150 minutes", "value": "52 % of control on PLYS"}, {"measurement": "Inhibition on CNS (%)", "setting": "inhibitor 3.0 μM, PLYS value minus CNS myelin value", "value": 18, "unit": "%"}]}
